We go through 7 compounds from paper PMC9389255 (Heliyon, 2022).

Series [1] deals with α-Glucosidase from Saccharomyces cerevisiae. Put plainly: Inhibitory kinetic analysis. Format: biochemical. The conditions noted are these: Lineweaver-Burk plots.
The nature of series [2]: Precipitation of DMSO-dissolved compounds upon mixing in phosphate buffer. Type of series: physicochemical.
Series [3] has as its system α-Glucosidase from Saccharomyces cerevisiae. Put plainly: In vitro inhibition assay for α-glucosidase activity. Format: biochemical.
Where [4] appears, read: printed in the column IC50 against α-amylase.
Setting [5] is: printed in the column IC50 against α-glucosidase.

Turning to `O=c1cc(-c2ccc(O)c(O)c2)oc2cc(O)cc(O)c12` [Luteolin], the “inhibition pattern against α-glucosidase” value in series [1] is recorded as “mixed inhibition patterns”.

`O=c1c(O)c(-c2ccc(O)cc2)oc2cc(O)cc(O)c12` [Kaempferol]: the “Precipitated at (in vial)” value in series [2] (setting [4]) and in series [2] (setting [5]) was “Precipitated at 80 μM (in vial)” in each case. In addition, the “inhibitory activity on α-glucosidase” value in series [3] (at ≤80 μM) is reported as “no inhibitory activity”.

With `O=c1cc(-c2ccccc2)oc2cc(O)cc(O)c12` [Chrysin], the “Precipitated at (in vial)” value in series [2] (setting [4]) and in series [2] (setting [5]) was “Precipitated at 400 μM (in vial)” throughout. For the same compound, the “inhibitory activity on α-glucosidase” value in series [3] (at ≤400 μM) is “no inhibitory activity”.

As for `O=c1cc(-c2ccc(O)cc2)oc2cc(O)cc(O)c12` [Apigenin], the “Precipitated at (in vial)” value in series [2] (setting [4]) and in series [2] (setting [5]) was “Precipitated at 1000 μM (in vial)” in each case. For the same compound, in series [3] (at ≤1000 μM), the “inhibitory activity on α-glucosidase” value is listed as “no inhibitory activity”.

On to `O=c1c(O)c(-c2ccc(O)c(O)c2)oc2cc(O)cc(O)c12` [Quercetin], for which, in series [1], the “inhibition pattern against α-glucosidase” value is reported as “mixed inhibition patterns”.

Consider `O=c1c(O)c(-c2cc(O)c(O)c(O)c2)oc2cc(O)cc(O)c12` [Myricetin], for which the “inhibition pattern against α-glucosidase” value in series [1] is reported as “mixed inhibition patterns”.

On to `C[C@H]1O[C@H](O[C@H]2[C@H](O)[C@@H](O)[C@@H](O[C@H]3[C@H](O)[C@@H](O)C(O)O[C@@H]3CO)O[C@@H]2CO)[C@H](O)[C@@H](O)[C@@H]1N[C@H]1C=C(CO)[C@@H](O)[C@H](O)[C@H]1O` (stereo partly shown) [Acarbose, reference compound], for which, in series [1], the “inhibition pattern against α-glucosidase” value is “competitive inhibition pattern”.
